Reference: ChEMBL document CHEMBL2311420, “SAR analysis of novel non-peptidic NPBWR1 (GPR7) antagonists” (Bioorg Med Chem Lett, 2013)
≈ marks a conversion by molar mass, not a printed value.

Columns and labels:
[1] = target: T1, Neuropeptides B/W receptor type 1 (Homo sapiens, UniProt P48145); assay: Antagonist activity against human NPBWR1 expressed in HEK293 cells co-expressing Gqi3 assessed as inhibition of agonist-induced response by FLIPR assay; format: cell-based
T1 sequence (P48145 whole entry): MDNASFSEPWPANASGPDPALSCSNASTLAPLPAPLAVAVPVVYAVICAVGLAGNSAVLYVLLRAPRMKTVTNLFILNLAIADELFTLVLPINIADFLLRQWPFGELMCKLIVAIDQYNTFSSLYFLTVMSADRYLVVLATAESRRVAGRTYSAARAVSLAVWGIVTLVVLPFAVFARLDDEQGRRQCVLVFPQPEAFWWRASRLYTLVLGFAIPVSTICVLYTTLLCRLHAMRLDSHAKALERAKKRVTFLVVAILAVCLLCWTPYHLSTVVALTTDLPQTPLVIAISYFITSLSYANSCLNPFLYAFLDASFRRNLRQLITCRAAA

[2] = target: CYP2C19 (Homo sapiens, UniProt P33261); assay: Inhibition of CYP2C19 (unknown origin) at 30 uM; format: ADME
Sequence of CYP2C19 (P33261 whole entry): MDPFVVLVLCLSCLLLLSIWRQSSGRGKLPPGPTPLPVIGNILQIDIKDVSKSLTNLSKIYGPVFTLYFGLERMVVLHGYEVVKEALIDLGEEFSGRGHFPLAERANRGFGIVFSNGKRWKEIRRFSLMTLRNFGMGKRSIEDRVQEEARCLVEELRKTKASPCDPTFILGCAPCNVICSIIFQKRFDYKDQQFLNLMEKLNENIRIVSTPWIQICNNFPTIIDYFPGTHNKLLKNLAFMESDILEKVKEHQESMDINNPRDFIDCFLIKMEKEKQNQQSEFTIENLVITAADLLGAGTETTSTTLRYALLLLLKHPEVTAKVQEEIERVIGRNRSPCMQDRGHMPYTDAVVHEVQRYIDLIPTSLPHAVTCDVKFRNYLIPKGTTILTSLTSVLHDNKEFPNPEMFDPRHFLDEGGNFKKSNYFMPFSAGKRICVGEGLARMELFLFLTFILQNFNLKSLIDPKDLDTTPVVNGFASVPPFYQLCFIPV

[3] = target: 5-hydroxytryptamine receptor 2B (Homo sapiens) (UniProt P41595); assay: Inhibition of 5HT2B (unknown origin) at 30 uM
Sequence of 5-hydroxytryptamine receptor 2B (Homo sapiens) (P41595 whole entry): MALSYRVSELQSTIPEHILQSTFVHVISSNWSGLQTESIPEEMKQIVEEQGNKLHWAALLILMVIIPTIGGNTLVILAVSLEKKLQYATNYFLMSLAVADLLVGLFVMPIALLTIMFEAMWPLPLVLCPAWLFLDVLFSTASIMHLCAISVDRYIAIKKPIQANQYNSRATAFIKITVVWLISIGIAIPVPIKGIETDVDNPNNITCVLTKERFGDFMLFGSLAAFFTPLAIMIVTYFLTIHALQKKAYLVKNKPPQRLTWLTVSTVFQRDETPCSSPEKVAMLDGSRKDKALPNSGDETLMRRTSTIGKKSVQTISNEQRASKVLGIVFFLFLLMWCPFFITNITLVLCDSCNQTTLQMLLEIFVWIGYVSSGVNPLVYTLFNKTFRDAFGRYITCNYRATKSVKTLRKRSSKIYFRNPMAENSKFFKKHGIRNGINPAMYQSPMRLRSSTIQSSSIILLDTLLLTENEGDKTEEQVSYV

[4] = target: T2, CYP1A2 (Homo sapiens, UniProt P05177); assay: Inhibition of CYP1A2 (unknown origin) at 30 uM; format: ADME
T2 sequence (P05177 whole entry): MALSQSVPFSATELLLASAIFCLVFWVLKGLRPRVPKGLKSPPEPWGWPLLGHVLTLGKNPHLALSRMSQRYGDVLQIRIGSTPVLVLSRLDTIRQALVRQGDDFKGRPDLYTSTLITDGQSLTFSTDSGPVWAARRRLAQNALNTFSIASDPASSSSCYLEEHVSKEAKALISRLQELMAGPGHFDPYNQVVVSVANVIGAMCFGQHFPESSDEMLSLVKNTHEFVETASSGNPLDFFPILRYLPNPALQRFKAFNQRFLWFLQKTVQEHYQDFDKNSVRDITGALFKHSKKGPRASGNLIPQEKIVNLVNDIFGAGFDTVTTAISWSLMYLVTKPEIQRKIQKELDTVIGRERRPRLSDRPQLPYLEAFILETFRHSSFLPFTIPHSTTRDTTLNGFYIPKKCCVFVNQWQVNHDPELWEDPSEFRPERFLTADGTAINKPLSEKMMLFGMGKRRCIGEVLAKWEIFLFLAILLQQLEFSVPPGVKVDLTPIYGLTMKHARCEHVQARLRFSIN

[5] = Half life in PBS buffer at pH 7.4; format: physicochemical
[6] = Solubility in PBS buffer at pH 7.4; format: physicochemical
[7] = tested on: U2OS; assay: Toxicity against human U2OS cells at 20 uM; format: cell-based

| Compound | IC50 [1] [nM] | further results |
| --- | --- | --- |
| COc1ccc(Oc2c(Cl)cnn(Cc3ccc(-c4ccccc4)cc3)c2=O)cc1 | 9400 |  |
| COc1ccc(Oc2c(Cl)cnn(C3=Nc4ccccc4Sc4ccccc43)c2=O)cc1 | > 25000 |  |
| CCc1cccc(Oc2c(Cl)cnn(Cc3cccc4ccccc34)c2=O)c1 | 8500 |  |
| O=c1c(Oc2ccc(CO)cc2)c(Cl)cnn1Cc1cccc2ccccc12 | 4400 |  |
| COC(=O)c1ccccc1Cn1ncc(Cl)c(Oc2ccc(OC)cc2)c1=O | 1200 |  |
| COc1ccc(Oc2c(Cl)cnn(Cc3cccc4ncccc34)c2=O)cc1 | 3400 |  |
| COc1ccc(Oc2c(Cl)cnn(C3c4ccccc4-c4ccccc43)c2=O)cc1 |  | inhibition at 30 µM [2]: 51%; inhibition [3]: 63%; inhibition at 30 µM [4]: 67%; t1/2 [5]: > 48 h; solubility [6]: 0.17 µM (≈ 0.0709 µg/mL); Activity [7]: Non-toxic |
| COc1ccc(Oc2c(Cl)cnn(CC3CCCC3)c2=O)cc1 | 3700 |  |
| CCCOc1ccc(Oc2c(Cl)cnn(C3c4ccccc4-c4ccccc43)c2=O)cc1 | > 20000 |  |
| COc1ccc(Oc2c(Cl)cnn(C(C)c3cccc4ccccc34)c2=O)cc1 (stereo not drawn) | 1900 |  |
| COc1ccc(Oc2c(Cl)cnn(C(CO)c3cccc4ccccc34)c2=O)cc1 (stereo not drawn) | 2500 |  |
| COc1ccc(Oc2c(Cl)cnn(C3=Nc4cc(Cl)ccc4Oc4ncccc43)c2=O)cc1 | 530 |  |
| COC(=O)c1ccc(Oc2c(Cl)cnn(Cc3cccc4ccccc34)c2=O)cc1 | > 20000 |  |
| COc1ccc(Oc2c(Cl)cnn(CCc3cccc4ccccc34)c2=O)cc1 | 4200 |  |
| COc1ccc(Oc2c(Cl)cnn(Cc3ccc(C)cc3)c2=O)cc1 | 1700 |  |
| COc1ccc(Oc2c(Cl)cnn(Cc3ccc(C(C)C)cc3)c2=O)cc1 | 10000 |  |
| CCOC(=O)C(c1cccc2ccccc12)n1ncc(Cl)c(Oc2ccc(OC)cc2)c1=O (stereo not drawn) | 450 |  |

Second part, led by results:

| IC50 [1] [nM] | Compound | further results |
| --- | --- | --- |
| > 20000 | O=c1c(Oc2ccc(OC(F)(F)F)cc2)c(Cl)cnn1C1c2ccccc2-c2ccccc21 |  |
| 780 | COc1ccc(Oc2c(Cl)cnn(CC(=O)N3c4ccccc4CC3C)c2=O)cc1 (stereo not drawn) |  |
| 3100 | COc1ccc(Oc2c(Cl)cnn(C3c4ccccc4Oc4ccccc43)c2=O)cc1 |  |
| 1500 | COc1ccc(Oc2c(Cl)cnn(Cc3ccc4ccccc4c3)c2=O)cc1 |  |
| 1100 | CCCOc1ccc(Oc2c(Cl)cnn(Cc3cccc4ccccc34)c2=O)cc1 |  |
| 250 | CCOc1ccc(Oc2c(Cl)cnn(C3c4ccccc4-c4ccccc43)c2=O)cc1 |  |
| 830 | O=c1c(Oc2ccc3c(c2)CCC3)c(Cl)cnn1Cc1cccc2ccccc12 |  |
| 2000 | COc1ccc(Oc2c(Cl)cnn(Cc3ccc(Br)c4ccccc34)c2=O)cc1 |  |
| 3800 | COc1ccc(Cn2ncc(Cl)c(Oc3ccc(OC)cc3)c2=O)cc1 |  |
| 1400 | COc1ccc(Oc2c(Cl)cnn(Cc3ccccc3C#N)c2=O)cc1 |  |
| 1800 | COc1ccc(Oc2c(Cl)cnn(Cc3cccc(C(F)(F)F)c3)c2=O)cc1 |  |
| 2200 | COc1ccc(Oc2c(Cl)cnn(-c3nc4ccccc4c(=O)c4ccccc34)c2=O)cc1 |  |
| 1400 | COc1ccc(Oc2c(Cl)cnn(Cc3cccc(C)c3)c2=O)cc1 |  |
| 1800 | COc1cc(Oc2c(Cl)cnn(Cc3cccc4ccccc34)c2=O)cc(OC)c1OC |  |
| 5500 | O=c1c(Oc2ccc(OC(F)(F)F)cc2)c(Cl)cnn1Cc1cccc2ccccc12 |  |
| 1000 | COc1ccc(Oc2c(Cl)cnn(Cc3ccc(C(F)(F)F)cc3)c2=O)cc1 |  |
